# Target: T1, KRAS^G12C::SOS1 (Homo sapiens, UniProt Q07889)
# T1 sequence (Q07889 1-1333): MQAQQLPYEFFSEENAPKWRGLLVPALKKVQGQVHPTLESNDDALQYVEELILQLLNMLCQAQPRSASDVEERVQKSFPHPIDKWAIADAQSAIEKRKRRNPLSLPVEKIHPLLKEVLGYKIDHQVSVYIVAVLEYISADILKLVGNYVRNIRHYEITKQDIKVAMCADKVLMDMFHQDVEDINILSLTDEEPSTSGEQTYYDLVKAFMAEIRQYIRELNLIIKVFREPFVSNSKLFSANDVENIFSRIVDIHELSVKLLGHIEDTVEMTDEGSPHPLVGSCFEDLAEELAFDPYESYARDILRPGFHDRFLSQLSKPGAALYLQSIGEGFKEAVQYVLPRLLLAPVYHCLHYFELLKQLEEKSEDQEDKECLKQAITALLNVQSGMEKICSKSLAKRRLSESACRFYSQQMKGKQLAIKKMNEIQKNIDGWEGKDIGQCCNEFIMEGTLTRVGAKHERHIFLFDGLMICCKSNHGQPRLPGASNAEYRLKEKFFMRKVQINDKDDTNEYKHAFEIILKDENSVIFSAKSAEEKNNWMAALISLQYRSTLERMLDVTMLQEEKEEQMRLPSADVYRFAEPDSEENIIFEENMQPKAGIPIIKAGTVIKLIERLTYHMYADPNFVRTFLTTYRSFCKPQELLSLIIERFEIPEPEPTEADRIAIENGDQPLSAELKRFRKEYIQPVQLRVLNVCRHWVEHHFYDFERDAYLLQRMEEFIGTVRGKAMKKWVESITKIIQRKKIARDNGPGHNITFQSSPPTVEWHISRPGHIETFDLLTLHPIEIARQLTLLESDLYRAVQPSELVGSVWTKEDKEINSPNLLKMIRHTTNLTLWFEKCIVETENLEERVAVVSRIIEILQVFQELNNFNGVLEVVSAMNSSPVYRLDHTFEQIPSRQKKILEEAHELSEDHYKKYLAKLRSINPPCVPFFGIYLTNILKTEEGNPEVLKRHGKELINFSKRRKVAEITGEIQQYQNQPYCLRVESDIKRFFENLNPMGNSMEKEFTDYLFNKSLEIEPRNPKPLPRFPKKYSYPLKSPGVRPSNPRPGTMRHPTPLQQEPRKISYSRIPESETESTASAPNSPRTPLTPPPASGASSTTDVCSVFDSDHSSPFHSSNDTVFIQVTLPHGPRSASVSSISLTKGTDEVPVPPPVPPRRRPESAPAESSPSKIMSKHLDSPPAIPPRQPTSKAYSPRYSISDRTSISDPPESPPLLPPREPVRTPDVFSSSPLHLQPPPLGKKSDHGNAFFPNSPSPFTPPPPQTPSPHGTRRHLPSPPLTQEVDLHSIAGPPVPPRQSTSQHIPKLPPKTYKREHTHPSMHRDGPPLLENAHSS
# Assay: KRAS G12C::SOS1 protein-protein interaction (PPI) inhibition assay (HTRF binding kit)
# Details: not given
row,IC50 [nM],Molecule
1,< 1000,"CNCc1ccccc1-c1ccc([C@@H](C)NC(=O)c2ccc(=O)n(-c3ccc(F)cc3F)n2)s1 [Example 398, (R)-1-(2,4-difluorophenyl)-N-(1-(5-(2-((methylamino)methyl)phenyl)thiophenyl-2-yl)ethyl)-6-oxo-1,6-dihydropyridazine-3-carboxamide]"
2,< 1000,"C[C@@H](NC(=O)c1ccc(=O)n(-c2cccc(-c3nnnn3C)c2)n1)c1cc(N)cc(C(F)(F)F)c1 [Example 347, N-[(1R)-1-[3-amino-5-(trifluoromethyl)phenyl]ethyl]-1-[3-(1-methyltetrazol-5-yl)phenyl]-6-oxo-pyridazine-3-carboxamide]"
3,> 10000,"C[C@@H](NC(=O)c1nn(-c2ccccc2F)c(=O)cc1O)c1cccc(C(F)(F)CO)c1F [Example 365, N-[(1R)-1-[3-(1,1-difluoro-2-hydroxy-ethyl)-2-fluoro-phenyl]ethyl]-1-(2-fluorophenyl)-4-hydroxy-6-oxo-pyridazine-3-carboxamide]"
4,< 1000,"C[C@H](O)c1cccc(-n2nc(C(=O)N[C@H](C)c3cc(N)cc(C(F)(F)F)c3)ccc2=O)c1 [Example 174, N-[(1R)-1-[3-amino-5-(trifluoromethyl)phenyl]ethyl]-1-[3-[(1S)-1-hydroxyethyl]phenyl]-6-oxo-pyridazine-3-carboxamide]"
5,< 1000,"CNCc1cc2c(cc1-c1ccc([C@@H](C)NC(=O)c3ccc(=O)n(-c4ccccc4F)c3)s1)CC2 [Example 276, 1-(2-fluorophenyl)-N-[(1R)-1-[5-[4-(methylaminomethyl)-3-bicyclo[4.2.0]octa-1,3,5-trienyl]-2-thienyl]ethyl]-6-oxo-pyridine-3-carboxamide]"
6,< 1000,"C[C@@H](NC(=O)c1ccc(=O)n(-c2cccc(C(N)=O)c2)n1)c1cc(N)cc(C(F)(F)F)c1 [Example 252, N-[(1R)-1-[3-amino-5-(trifluoromethyl)phenyl]ethyl]-1-(3-carbamoylphenyl)-6-oxo-pyridazine-3-carboxamide]"
7,1000 to 10000,"C[C@@H](NC(=O)c1nn(-c2ccccc2F)c(=O)cc1OCc1ccccc1)c1cccc(C(F)(F)CO)c1F [Example 364, 4-benzyloxy-N-[(1R)-1-[3-(1,1-difluoro-2-hydroxy-ethyl)-2-fluorophenyl]ethyl]-1-(2-fluorophenyl)-6-oxo-pyridazine-3-carboxamide]"
8,< 1000,"COc1cccc(-n2cc(C(=O)N[C@H](C)c3cccc(C(F)(F)CO)c3F)ccc2=O)c1F [Example 186, N-[(1R)-1-[3-(1,1-difluoro-2-hydroxy-ethyl)-2-fluoro-phenyl]ethyl]-1-(2-fluoro-3-methoxyphenyl)-6-oxo-pyridine-3-carboxamide]"
9,< 1000,"C[C@@H](NC(=O)c1ccc(=O)n(C)n1)c1cc(N)cc(C(F)(F)F)c1 [Example 228, N-[(1R)-1-[3-amino-5-(trifluoromethyl)phenyl]ethyl]-1-methyl-6-oxo-pyridazine-3-carboxamide]"
10,< 1000,"C[C@@H](NC(=O)c1ccc(=O)n(-c2cccc(C(=O)N(C)C)c2F)n1)c1cc(N)cc(C(F)(F)F)c1 [Example 354, N-[(1R)-1-[3-amino-5-(trifluoromethyl)phenyl]ethyl]-1-[3-(dimethylcarbamoyl)-2-fluoro-phenyl]-6-oxo-pyridazine-3-carboxamide]"
11,< 1000,"CNCc1ccc(Cl)cc1-c1ccc([C@@H](C)NC(=O)c2ccc(=O)n(-c3cccnc3NC)n2)s1 [Example 271, N-[(1R)-1-[5-[5-chloro-2-(methylaminomethyl)phenyl]-2-thienyl]ethyl]-1-[2-(methylamino)-3-pyridyl]-6-oxo-pyridazine-3-carboxamide]"
12,< 1000,"CNCc1cccc(F)c1-c1ccc([C@@H](C)NC(=O)c2ccc(=O)n(-c3cccnc3F)n2)s1 [Example 293, N-[(1R)-1-[5-[2-fluoro-6-(methylaminomethyl)phenyl]-2-thienyl]ethyl]-1-(2-fluoro-3-pyridyl)-6-oxo-pyridazine-3-carboxamide]"
13,< 1000,"COc1ccc(F)c(-n2cc(C(=O)N[C@H](C)c3cc(N)cc(C(F)(F)F)c3)ccc2=O)c1 [Example 178, N-[(1R)-1-[3-amino-5-(trifluoromethyl)phenyl]ethyl]-1-(2-fluoro-5-methoxy-phenyl)-6-oxo-pyridine-3-carboxamide]"
14,< 1000,"C[C@@H](NC(=O)c1ccc(=O)n(-c2ccccc2F)n1)c1cccc(C(F)(F)C(C)(C)O)c1F [Example 192, N-[(1R)-1-[3-(1,1-difluoro-2-hydroxy-2-methyl-propyl)-2-fluoro-phenyl]ethyl]-1-(2-fluorophenyl)-6-oxo-pyridazine-3-carboxamide]"
15,< 1000,"Cc1ncccc1-c1cccc(-n2nc(C(=O)N[C@H](C)c3cc(N)cc(C(F)(F)F)c3)ccc2=O)c1 [Example 324, N-[(1R)-1-[3-amino-5-(trifluoromethyl)phenyl]ethyl]-1-[3-(2-methyl-3-pyridyl)phenyl]-6-oxo-pyridazine-3-carboxamide]"
16,< 1000,"COCc1cccc(-n2nc(C(=O)N[C@H](C)c3cccc(C(F)(F)CO)c3F)ccc2=O)c1 [Example 204, N-[(1R)-1-[3-(1,1-difluoro-2-hydroxy-ethyl)-2-fluoro-phenyl]ethyl]-1-[3-(methoxymethyl)phenyl]-6-oxo-pyridazine-3-carboxamide]"
17,< 1000,"COc1cccc(-n2nc(C(=O)N[C@H](C)c3cccc(C(F)(F)CO)c3F)ccc2=O)c1F [Example 184, N-[(1R)-1-[3-(1,1-difluoro-2-hydroxy-ethyl)-2-fluoro-phenyl]ethyl]-1-(2-fluoro-3-methoxyphenyl)-6-oxo-pyridazine-3-carboxamide]"
18,< 1000,"Cc1ncnn1-c1cccc(-n2nc(C(=O)N[C@H](C)c3cc(N)cc(C(F)(F)F)c3)ccc2=O)c1 [Example 211, N-[(1R)-1-[3-amino-5-(trifluoromethyl)phenyl]ethyl]-1-[3-(5-methyl-1,2,4-triazol-1-yl)phenyl]-6-oxo-pyridazine-3-carboxamide]"
19,< 1000,"C[C@@H](NC(=O)c1ccc(=O)n(CC2CC2)n1)c1cc(N)cc(C(F)(F)F)c1 [Example 224, N-[(1R)-1-[3-amino-5-(trifluoromethyl)phenyl]ethyl]-1-(cyclopropylmethyl)-6-oxo-pyridazine-3-carboxamide]"
20,< 1000,"C[C@@H](NC(=O)c1ccc(=O)n(-c2cnn(C)c2)n1)c1cc(N)cc(C(F)(F)F)c1 [Example 200, N-[(1R)-1-[3-amino-5-(trifluoromethyl)phenyl]ethyl]-1-(1-methylpyrazol-4-yl)-6-oxo-pyridazine-3-carboxamide]"
21,< 1000,"C[C@@H](NC(=O)c1ccc(=O)n(-c2cccc(-c3cnco3)c2)n1)c1cc(N)cc(C(F)(F)F)c1 [Example 343, N-[(1R)-1-[3-amino-5-(trifluoromethyl)phenyl]ethyl]-1-(3-oxazol-5-ylphenyl)-6-oxo-pyridazine-3-carboxamide]"
22,< 1000,"CNCc1ccc(Cl)cc1-c1ccc([C@@H](C)NC(=O)c2ccc(=O)n(-c3cccnc3F)c2)s1 [Example 277, N-[(1R)-1-[5-[5-chloro-2-(methylaminomethyl)phenyl]-2-thienyl]ethyl]-1-(2-fluoro-3-pyridyl)-6-oxo-pyridine-3-carboxamide]"
23,< 1000,"C[C@@H](NC(=O)c1ccc(=O)n(-c2ccccc2F)c1)c1cc(N)cc(C(F)(F)F)c1 [Example 218, N-[(1R)-1-[3-amino-5-(trifluoromethyl)phenyl]ethyl]-1-(2-fluorophenyl)-6-oxo-pyridine-3-carboxamide]"
24,< 1000,"CNCc1ccccc1-c1csc([C@@H](C)NC(=O)c2ccc(=O)n(-c3ccccc3F)n2)c1 [Example 267, 1-(2-fluorophenyl)-N-[(1R)-1-[4-[2-(methylaminomethyl)phenyl]-2-thienyl]ethyl]-6-oxo-pyridazine-3-carboxamide]"

# Same assay, conditions: read-out: KRAS ^G12C::SOS1 PPI assay (IC50 range, Grade); maximum concentration 3 µM, 8 concentrations, three replicates
row,IC50 [nM],Molecule
1,1000 to 10000,N-[(1R)-1-[3-amino-5-(trifluoromethyl)phenyl]ethyl]-6-oxo-1-(3-phenylphenyl)pyridazine-3-carboxamide [Example 212]
2,< 1000,N-[(1R)-1-[3-amino-5-(trifluoromethyl)phenyl]ethyl]-6-oxo-1-[3-(4-pyridyl)phenyl]pyridazine-3-carboxamide [Example 346]
